Data as given in patent US9642925B2, “Magnetic nanoparticle formulations, methods for making such formulations, and methods for their use” (Sanford Research/USD, priority 2010, dated 2017).

Experiments:
Bcl-xL = experiment: IHC of Bcl-xL expression in pancreatic tumor xenografts; assay type: in vivo, athymic nude mice; conditions: intra-tumoral at day 20
Method: (§1) FIG. 15. The effect of MNP-curcumin formulation on the expression of Bcl-xL and MCL-1 oncogenes in pancreatic tumor xenografts. Pancreatic tumor xenografts were generated in athymic nude mice by subcutaneous (sc) injection of HPAFII human pancreatic cancer cells. […] The presence of MNPs (iron) in tumors was determined by Prussian Blue staining. Original Magnifications 200×.
(§2) We then tested to effect of MNP-curcumin formulation on the expression of Bcl-xL and MCL-1 oncogenes in pancreatic tumor xenografts. Pancreatic tumor xenografts were generated in athymic nude mice by subcutaneous (sc) injection of HPAFII human pancreatic cancer cells.

[1] = system: MDA-MB-231 breast cancer cells; experiment: In vitro cytotoxicity (MTT assay), MDA-MB-231; assay type: cell-based; conditions: Homo sapiens, 48 h; MDA-MB-231, 2 days; read-out: IC50 (50% cell growth inhibitory concentration)
Method: (§3) In vitro cytotoxicity was assessed using a standard 3-(4,5-dimethylthiazol-2-yl)-2,5-diphenyltetrazolium bromide (MTT) based colorimetric assay (CellTiter 96 AQeous, Promega, Madison, Wis., USA). Ovarian (A2780CP), breast (MDA-MB-231), and prostate (PC3) cancer cells were used for this experiment. Cells (5000 cells/well in 100 μl media) were cultured in RPMI-1640 or DMEM medium containing 10% FBS and 1% penicillin-streptomycin in 96-well plates and allowed to attach overnight. The media was replaced with fresh media containing different concentrations (2.5-40 μM) of CUR and CUR containing MNPs (F127250-CUR). Equivalent amounts of DMSO or F127250 MNPs without drug in PBS were used as control. These plates were incubated at 37° C. for 2 days. After day 2, the media was replaced with 100 μl fresh media and the MTT reagent (25 μl/well) was added to each well and plates were incubated for 3 hrs at 37° C. in an incubator. The color intensity was measured at 492 nm using a microplate reader (BioMate 3 UV-Vis Spectrophotometer, Thermo Electron Corporation, Hudson, N.H., USA). The anti-proliferation potential of CUR and F127250-CUR treatments was calculated as a percentage of cell growth with respect to the DMSO and F127250 formulation in PBS controls. Standard deviations were obtained from 6 replicates.

PARP = experiment: Western blot for PARP cleavage in PC3 cells; assay type: cell-based; conditions: 20 μM
Method: The immunoblot analyses were performed to determine anti-cancer effects of our formulation at the molecular level. For these experiments, cancer cells were collected after 2 days of treatment with 10 μM and 20 μM CUR and 10 μM and 20 μM of F127250-CUR and processed for protein extraction and Western blotting using standard procedures. The cell lysates were separated by gel electrophoresis on polyacrylamide gels containing sodium dodecyl sulfate and then transferred to PVDF membranes. The membranes were blocked with Tris-buffered saline (TBS) containing 5% (w/v) skimmed milk. After washing thrice with Tween 20, the membranes were incubated overnight with primary antibody specific to Bcl-xL or PARP at 4° C. After washing, the membranes were incubated for 1 hr with secondary antibody (Promega, Madison Wis., USA). Protein bands were visualized using the Lumi-Light Detection Kit (Roche, Nutley, N.J., USA) and detected with a BioRad Gel Doc (BioRad, Hercules, Calif., USA).

[2] = system: PC3 prostate cancer cells; experiment: In vitro cytotoxicity (MTT assay), PC3; assay type: cell-based; conditions: 48 h; PC3, 2 days; read-out: IC50 (50% cell growth inhibitory concentration)
Method: as §3

[3] = system: A2780CP ovarian cancer cells; experiment: In vitro cytotoxicity (MTT assay), A2780CP; assay type: cell-based; conditions: A2780C/P, 48 h, 2 days, read-out: IC50 (50% cell growth inhibitory concentration)
Method: as §3

MCL-1 = experiment: IHC of MCL-1 expression in pancreatic tumor xenografts; assay type: in vivo, athymic nude mice; conditions: intra-tumoral at day 20
Method: as §1, §2

PC3 cancer cells = experiment: Ultrastructural changes in cancer cells by TEM; assay type: cell-based; conditions: 20 μM
Method: The uptake (internalization) pattern of nanoparticles was monitored by transmission electron microscopy (TEM) to further validate the cellular uptake capability of magnetic nanoparticles in cancer cells which was visually observed. For this experiment, aforementioned cells (1×10^7 cells per 150 mm plate) were incubated with 1 mg of particles in 20 ml media for 6 hrs. The treated cells were centrifuged and fixed with standard formaldehyde (4%)-glutaraldehyde (1%) fixative solution followed by OsO4 fixative solution. Next, cells were dehydrated in a graded series of acetone and embedded in Spurr resin. These cell-containing resin blocks were sectioned using an ultramicrotome and ultrathin sections (70-90 nm thickness) were transferred onto TEM grid (grid size: 97 μm) (Ted Pella Inc., Redding, Calif., USA). The grids were processed with uranyl acetate and lead acetate solutions to visualize cellular ultra structures.
The variation of ultrastructural changes in the cancer cells upon exposure to control (DMSO and F127250 formulation), 20 μM CUR or 20 μM F127250-CUR were observed by transmission electron microscopy (TEM) analysis.

## COc1cc(/C=C/C(=O)CC(=O)/C=C/c2ccc(O)c(OC)c2)ccc1O [curcumin, (E,E)-1,7-bis(4-Hydroxy-3-methoxyphenyl)-1,6-heptadiene-3,5-dione]
Bcl-xL
  expression of Bcl-xL oncogene in tumor xenografts: effectively inhibited the expression
[1]
  IC50: 18.8 µM
PARP
  PARP cleavage: considerable cleavage
[2]
  IC50: 10.6 µM
[3]
  IC50: 12.6 µM
MCL-1
  expression of MCL-1 oncogene in tumor xenografts: effectively inhibited the expression
PC3 cancer cells
  ultrastructural changes (vacuole formation): formation of endosomal-lysosomal-vacules
